The results in this text go back to patent publication US20240132513A1, “BENZAZEPINE DERIVATIVES, COMPOSITIONS, AND METHODS FOR TREATING COGNITIVE IMPAIRMENT” (AGENEBIO, INC., priority 2022, published 2024).

Like-named read-outs stand apart in the source and are kept apart here.

The test deals with α5β3γ2 GABAA R (Homo sapiens, UniProt P18507+P31644). Description: Binding activity on GABAA R: inhibition of [3H]Ro15-1788 binding, α5 containing receptor. How it is done:
Tissue culture and Membrane Preparation: The binding was performed on Ltk cells stably expressing GABAA R: […], α2β3γ2, α3β3γ2 and α5β3γ2 (provided by Merck Co., NJ, USA). Cells were seeded in 100 mm culture plates in DMEM/F12 medium containing 10% serum and antibiotics in 5% CO2 and allowed to grow for 1-2 days. GABAAR expression was then induced by dexamethasone as follows: 0.5 μM for 1 day for α5 containing and 2 μM for 3 days for α1, α2 and α3 containing GABAARs. After induction, cells were collected by scraping into Dulbecco's Phosphate buffered saline (DPBS, pH 7.4, Invitrogen, Carlsbad, CA, USA) and centrifuged at 150×g for 10 min. The pellet was washed twice by re-suspension and centrifugation. The cell pellets from at least 5 different preps were combined, suspended in the binding assay buffer (50 mM KH2PO4; 1 mM EDTA; 0.2 M KCl, pH 7.4) and membranes prepared by sonication (3-5 times, 30 sec) using Branson Sonifier 150 (G. Heinmann, Germany). Protein content was determined using BCA assay (Bio-Rad Labs, Reinach, Switzerland) with Bovine Serum Albumin (Sigma Aldrich, St. Louis, MO, USA) as the standard. Aliquots were prepared and stored at −20° C. for further use in binding assays.
Ligand Binding: Saturation binding curves were obtained by incubating membranes with increasing concentrations (0.01-8 nM) of [^3H]Rol5-1788 (Flumazepil, 75-85 Ci/mmol, PerkinElmer, MA, USA), with nonspecific binding measured in the presence of 10 μM diazepam.
All binding assays were performed for 1 h at 4° C. in assay buffer. The total assay volume was 0.5 ml containing 0.2 mg/ml protein for α5 and 0.4 mg/ml for α1, α2, and α3 containing GABAAR membranes. Incubations were terminated by filtration through GF/B filters using a 24-Cell Harvestor (Brandel, Gaithersburg, MD, USA) followed by 3 washes with ice-cold assay buffer. Filters were transferred to scintillation vials, 5 ml scintillation liquid added, vortex-mixed and kept in dark. Next day, radioactivity was obtained using a scintillation counter (Beckman Coulter, Brea, CA, USA). All assays were performed in triplicate.
Data Analyses: Saturation and inhibition curves were obtained using GraphPad Prism software (GraphPad Software, Inc., CA, USA).

[1] abbreviates: ranges of the column heads, [3H]Ro15-1788, Ltk cell membranes.

α5β3γ2 GABAA R, sequence (P31644 32-462): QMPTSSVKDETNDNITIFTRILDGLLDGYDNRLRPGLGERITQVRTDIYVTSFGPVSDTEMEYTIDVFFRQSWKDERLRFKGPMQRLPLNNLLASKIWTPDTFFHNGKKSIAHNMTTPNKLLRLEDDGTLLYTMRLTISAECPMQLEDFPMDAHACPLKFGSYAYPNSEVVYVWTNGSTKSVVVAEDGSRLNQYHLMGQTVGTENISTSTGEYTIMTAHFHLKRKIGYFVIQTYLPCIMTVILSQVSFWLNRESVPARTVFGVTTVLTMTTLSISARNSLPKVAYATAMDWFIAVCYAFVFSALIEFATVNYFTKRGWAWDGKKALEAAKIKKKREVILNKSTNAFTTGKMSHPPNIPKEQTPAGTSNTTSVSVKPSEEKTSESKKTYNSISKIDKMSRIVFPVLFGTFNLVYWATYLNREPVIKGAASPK
α5β3γ2 GABAA R, sequence (P28472 26-473 partner): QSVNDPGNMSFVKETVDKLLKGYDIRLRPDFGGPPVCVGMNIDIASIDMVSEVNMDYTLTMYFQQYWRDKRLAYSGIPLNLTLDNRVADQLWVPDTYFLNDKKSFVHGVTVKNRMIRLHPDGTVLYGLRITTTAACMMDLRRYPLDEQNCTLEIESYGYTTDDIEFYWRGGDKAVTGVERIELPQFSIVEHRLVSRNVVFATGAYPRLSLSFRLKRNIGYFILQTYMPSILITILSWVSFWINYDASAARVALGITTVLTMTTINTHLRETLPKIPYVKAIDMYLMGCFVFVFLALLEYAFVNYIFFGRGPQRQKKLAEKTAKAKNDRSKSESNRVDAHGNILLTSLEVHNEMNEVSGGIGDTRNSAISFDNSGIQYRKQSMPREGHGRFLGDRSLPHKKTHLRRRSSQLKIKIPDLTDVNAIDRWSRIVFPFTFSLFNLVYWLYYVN
α5β3γ2 GABAA R, sequence (P18507 40-475): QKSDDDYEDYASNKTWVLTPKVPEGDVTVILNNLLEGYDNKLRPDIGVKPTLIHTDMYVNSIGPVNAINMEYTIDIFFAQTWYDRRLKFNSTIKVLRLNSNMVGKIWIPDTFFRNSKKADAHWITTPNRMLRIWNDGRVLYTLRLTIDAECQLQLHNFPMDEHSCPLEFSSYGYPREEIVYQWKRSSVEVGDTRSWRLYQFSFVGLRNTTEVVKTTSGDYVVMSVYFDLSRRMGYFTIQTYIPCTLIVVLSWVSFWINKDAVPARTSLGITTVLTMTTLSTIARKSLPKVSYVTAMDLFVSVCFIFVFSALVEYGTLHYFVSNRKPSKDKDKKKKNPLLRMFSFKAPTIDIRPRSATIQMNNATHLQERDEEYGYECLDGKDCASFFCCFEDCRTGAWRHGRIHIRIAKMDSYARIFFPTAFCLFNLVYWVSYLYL

Regarding `Cc1noc(-c2ncn3c2Cc2cnn(Cc4ccccc4)c2-c2cc(Cl)ccc2-3)n1` [Compound 1], the inhibitory constant (Ki) – broadly, a measure of affinity in units of concentration, obtained from inhibition or displacement – is less than 0.1 µM.

For `CC(C)c1noc(-c2ncn3c2Cc2cnn(Cc4ccccc4)c2-c2cc(Cl)ccc2-3)n1` [Compound 2], the inhibition constant (Ki) was in the range of 0.1 to 1 µM.

The molecule `Cc1noc(-c2ncn3c2Cc2cnn(C)c2-c2cc(Cl)ccc2-3)n1` [Compound 3] registered a Ki of less than 0.1 µM.

In turn, `CC(C)c1noc(-c2ncn3c2Cc2cnn(C)c2-c2cc(Cl)ccc2-3)n1` [Compound 4] yielded a Ki of 0.1 to 1 µM.

In turn, `Clc1ccc2c(c1)-c1c(cnn1Cc1ccccc1)Cc1c(C3=N[C@H](c4ccccc4)CO3)ncn1-2` [Compound 5] showed an inhibition constant (Ki) of 0.1 to 1 µM.

With `Clc1ccc2c(c1)-c1c(cnn1Cc1ccccc1)Cc1c(C3=N[C@@H](c4ccccc4)CO3)ncn1-2` [Compound 6], the inhibitory constant (Ki) under setting [1] was more than 1 µM.

The molecule `COc1ccc2c(c1)-c1c(cnn1Cc1ccccc1)Cc1c(-c3nc(C(C)C)no3)ncn1-2` [Compound 8] had an inhibition constant (Ki) of 0.1 to 1 µM.

On to `C[C@@H]1COC(c2ncn3c2Cc2cnn(Cc4ccccc4)c2-c2cc(Cl)ccc2-3)=N1` [Compound 12], for which, under setting [1], the Ki was 0.1 to 1 µM.

Turning to `C[C@H]1COC(c2ncn3c2Cc2cnn(Cc4ccccc4)c2-c2cc(Cl)ccc2-3)=N1` [Compound 13], the inhibition constant Ki under setting [1] is more than 1 µM.

In turn, `COc1ccc2c(c1)-c1[nH]ncc1Cc1c(C3=N[C@@H](c4ccccc4)CO3)ncn1-2` [Compound 15] came in with a Ki of less than 0.1 µM.

`COc1ccc2c(c1)-c1nn(Cc3ccccc3)cc1Cc1c(-c3nc(C)no3)ncn1-2` [Compound 16] displayed a Ki of less than 0.1 µM.

Molecule `COc1ccc2c(c1)-c1nn(Cc3ccccc3)cc1Cc1c(-c3nc(C(C)(C)C)no3)ncn1-2` [Compound 17] came in with a Ki of less than 0.1 µM.

Turning to `COc1ccc2c(c1)-c1c(cnn1C)Cc1c(-c3nc(C)no3)ncn1-2` [Compound 18], the inhibition constant (Ki) under setting [1] lay in the range of 0.1 to 1 µM.

`COc1ccc2c(c1)-c1c(cnn1C)Cc1c(-c3nc(C(C)(C)C)no3)ncn1-2` [Compound 19] yielded a Ki under setting [1] of more than 1 µM.

Regarding `COc1ccc2c(c1)-c1nn(Cc3cccc(F)c3)cc1Cc1c(-c3nc(C)no3)ncn1-2` [Compound 22], the Ki is less than 0.1 µM.

On to `COc1ccc2c(c1)-c1[nH]ncc1Cc1c(C3=N[C@H](c4ccc(Cl)cc4)CO3)ncn1-2` [Compound 24], for which the Ki was less than 0.1 µM.

Molecule `CCOC(=O)c1cnc2n1CC(=O)N(Cc1ccc(OC)cc1OC)c1cc(Cl)ccc1-2` [Compound 25] showed an inhibitory constant (Ki) under setting [1] of more than 1 µM.

As to `Cc1noc(-c2cnc3n2CC(=O)Nc2cc(Cl)ccc2-3)n1` [Compound 26], the Ki under setting [1] was more than 1 µM.

Turning to `CC(C)c1noc(-c2cnc3n2CC(=O)Nc2cc(Cl)ccc2-3)n1` [Compound 27], the Ki under setting [1] is more than 1 µM.

With `CCOC(=O)c1cnc2n1CC(=O)N(C)c1cc(Cl)ccc1-2` [Compound 28], the Ki was more than 1 µM.

Under setting [1], `CN1C(=O)Cn2c(C3=N[C@H](c4ccccc4)CO3)cnc2-c2ccc(Cl)cc21` [Compound 29] displayed a Ki of more than 1 µM.

`CN1C(=O)Cn2c(C3=N[C@@H](c4ccccc4)CO3)cnc2-c2ccc(Cl)cc21` [Compound 30]: the inhibitory constant (Ki) under setting [1] is more than 1 µM.

`CC(C)c1noc(-c2cnc3n2CC(=O)N(C)c2cc(Cl)ccc2-3)n1` [Compound 31] returned a Ki of more than 1 µM.

`Cc1noc(-c2cnc3n2CC(=O)N(C)c2cc(Cl)ccc2-3)n1` [Compound 32]: under setting [1], the Ki was more than 1 µM.

Regarding `COc1ccc(Cn2ncc3c2-c2cc(OC)ccc2-n2cnc(C#Cc4ccc(OC)nc4)c2C3)cc1` [Compound 36], the Ki is 0.1 to 1 µM.

Molecule `COc1ccc(Cn2ncc3c2-c2cc(OC)ccc2-n2cnc(C#Cc4ccnn4C)c2C3)cc1` [Compound 37] yielded an inhibition constant Ki of 0.1 to 1 µM.

`COc1ccc2c(c1)-c1[nH]ncc1Cc1c(C#Cc3ccc(OC)nc3)ncn1-2` [Compound 38]: the Ki was less than 0.1 µM.

`CCOC(=O)c1ncn2c1Cc1cnoc1-c1cc(OC)ccc1-2` [Compound 40] registered a Ki under setting [1] of less than 0.1 µM.

With `COc1ccc2c(c1)-c1oncc1Cc1c(-c3nc(C(C)C)no3)ncn1-2` [Compound 41], under setting [1], the Ki was more than 1 µM.

For `COc1ccc2c(c1)-c1oncc1Cc1c(-c3nc(C)no3)ncn1-2` [Compound 42], under setting [1], the Ki is more than 1 µM.

Consider `COc1ccc2c(c1)-c1nn(Cc3ccccc3F)cc1Cc1c(-c3nc(C(C)C)no3)ncn1-2` [Compound 43], for which the Ki is less than 0.1 µM.

Molecule `COc1ccc2c(c1)-c1c(cnn1C)Cc1c(-c3nc(C(C)C)no3)ncn1-2` [Compound 47] came in with a Ki of 0.1 to 1 µM.

The molecule `COc1ccc2c(c1)-c1oncc1Cc1c(C3=N[C@@H](c4ccccc4)CO3)ncn1-2` [Compound 48] had a Ki under setting [1] of more than 1 µM.

Regarding `COc1ccc2c(c1)-c1oncc1Cc1c(C3=N[C@H](c4ccccc4)CO3)ncn1-2` [Compound 49], under setting [1], the Ki is more than 1 µM.

Regarding `COc1ccc2c(c1)-c1oncc1Cc1c(C3=N[C@@H](c4ccc(C(F)(F)F)cc4)CO3)ncn1-2` [Compound 50], the Ki under setting [1] is more than 1 µM.

In the case of `C#Cc1ncn2c1Cc1cnoc1-c1cc(OC)ccc1-2` [Compound 51], the Ki under setting [1] was more than 1 µM.

`COc1ccc(C#Cc2ncn3c2Cc2cn[nH]c2-c2cc(OC)ccc2-3)nc1` [Compound 53] registered an inhibition constant Ki of less than 0.1 µM.

`COc1ccc2c(c1)-c1[nH]ncc1Cc1c(-c3noc(C(C)C)n3)ncn1-2` [Compound 54]: the Ki was less than 0.1 µM.

`CCOC(=O)c1cnc2n1Cc1nncn1-c1cc(Cl)ccc1-2` [Compound 56] came in with a Ki of less than 0.1 µM.

`CC(C)c1noc(-c2cnc3n2Cc2nncn2-c2cc(Cl)ccc2-3)n1` [Compound 58] came in with an inhibition constant Ki under setting [1] of more than 1 µM.

As for `CC(C)c1noc(-c2ncn3c2Cc2cnoc2-c2cc(Cl)ccc2-3)n1` [Compound 59], under setting [1], the inhibitory constant (Ki) is more than 1 µM.

In turn, `Clc1ccc2c(c1)-c1[nH]ncc1Cc1c(-c3cnn(-c4ccccc4)c3)ncn1-2` [Compound 60] had a Ki of 0.1 to 1 µM.

In the case of `Clc1ccc2c(c1)-c1[nH]ncc1Cc1c(-c3cnoc3)ncn1-2` [Compound 61], the inhibition constant Ki is 0.1 to 1 µM.

For the molecule `Cn1cc(-c2ncn3c2Cc2cn[nH]c2-c2cc(Cl)ccc2-3)cn1` [Compound 62], the inhibitory constant (Ki) lay within 0.1 to 1 µM.

`CC#Cc1ncn2c1Cc1cn[nH]c1-c1cc(Cl)ccc1-2` [Compound 65] returned a Ki of less than 0.1 µM.

Under setting [1], `CC(C)Cc1noc(-c2ncn3c2Cc2cnoc2-c2cc(Cl)ccc2-3)n1` [Compound 66] yielded a Ki of more than 1 µM.

In turn, `COc1ccc2c(c1)-c1oncc1Cc1c(-c3nc(CC(C)C)no3)ncn1-2` [Compound 67] yielded an inhibition constant Ki under setting [1] of more than 1 µM.

In turn, `CC(C)C[C@@H]1COC(c2ncn3c2Cc2cnoc2-c2cc(Cl)ccc2-3)=N1` [Compound 68] yielded a Ki under setting [1] of more than 1 µM.

Under setting [1], `Cc1noc(-c2ncn3c2Cc2cnoc2-c2cc(Cl)ccc2-3)n1` [Compound 69] yielded an inhibition constant Ki of more than 1 µM.

On to `COc1ccc2c(c1)-c1[nH]ncc1Cc1c(-c3cnn(-c4ccccc4)c3)ncn1-2` [Compound 70], for which the Ki fell in the range of 0.1 to 1 µM.

As to `COc1ccc2c(c1)-c1[nH]ncc1Cc1c(-c3ncco3)ncn1-2` [Compound 71], the inhibitory constant (Ki) is less than 0.1 µM.

Consider `COc1ccc2c(c1)-c1[nH]ncc1Cc1c(-c3cnn(Cc4ccccc4)c3)ncn1-2` [Compound 72], for which the Ki was less than 0.1 µM.

Under setting [1], `COc1ccc2c(c1)-c1[nH]ncc1Cc1c(C3=CCCC3)ncn1-2` [Compound 74] returned an inhibition constant (Ki) of 0.1 to 1 µM.

`COc1ccc2c(c1)-c1nn(Cc3ccccc3F)cc1Cc1c(-c3cnn(-c4ccccc4)c3)ncn1-2` [Compound 75] yielded a Ki of 0.1 to 1 µM.

As to `COc1ccc2c(c1)-c1nn(Cc3ccccc3F)cc1Cc1c(-c3cnn(Cc4ccccc4)c3)ncn1-2` [Compound 77], the Ki is less than 0.1 µM.

Under setting [1], `COc1ccc2c(c1)-c1[nH]ncc1Cc1c(-c3ccnn3C)ncn1-2` [Compound 78] showed a Ki of more than 1 µM.

On to `COc1ccc2c(c1)-c1[nH]ncc1Cc1c(-c3cc(C(F)(F)F)nn3C)ncn1-2` [Compound 79], for which the Ki lay within 0.1 to 1 µM.

In turn, `COc1ccc2c(c1)-c1[nH]ncc1Cc1c(-c3cn(C)cn3)ncn1-2` [Compound 80] had an inhibition constant (Ki) under setting [1] of more than 1 µM.

As to `COc1ccc2c(c1)-c1[nH]ncc1Cc1c(-c3cn(C)nc3C(F)(F)F)ncn1-2` [Compound 81], under setting [1], the inhibitory constant (Ki) was more than 1 µM.

`COc1ccc2c(c1)-c1[nH]ncc1Cc1c(-c3cnn(C)c3)ncn1-2` [Compound 82] yielded a Ki of 0.1 to 1 µM.

Molecule `CC#Cc1ncn2c1Cc1cn[nH]c1-c1cc(OC)ccc1-2` [Compound 83] came in with a Ki under setting [1] of less than 0.1 µM.

The molecule `COc1ccc2c(c1)-c1[nH]ncc1Cc1c(-c3noc(C(C)(C)C)n3)ncn1-2` [Compound 89] had a Ki under setting [1] of less than 0.1 µM.

In the case of `CC(C)(C)C#Cc1ncn2c1Cc1cn(Cc3ccccc3)nc1-c1cc(Cl)ccc1-2` [Compound 92], the inhibition constant (Ki) is less than 0.1 µM.

Take `COc1ccc2c(c1)-c1[nH]ncc1Cc1c(-c3cnco3)ncn1-2` [Compound 95]: the Ki was less than 0.1 µM.
